Activity calls are given as the source filed them.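 How the source made its calls: active means more than half of replicate measurements showing over 20% loss of kinase signal relative to plate controls; inconclusive means some but at most half of replicates over 20% loss; inactive means no replicate over 20% signal loss.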
Target: Glycogen synthase kinase-3 alpha (Homo sapiens) (UniProt P49840)
Test: concentration-response blocking of human GSK3A – biochemical, luminescence, cell-free homogeneous, retest, dose response (AID 463203)
Conditions: GSK-3 alpha enzyme, ADP-Glo luminescence, 60 min

Glycogen synthase kinase-3 alpha (Homo sapiens), sequence (P49840 whole entry, looked up): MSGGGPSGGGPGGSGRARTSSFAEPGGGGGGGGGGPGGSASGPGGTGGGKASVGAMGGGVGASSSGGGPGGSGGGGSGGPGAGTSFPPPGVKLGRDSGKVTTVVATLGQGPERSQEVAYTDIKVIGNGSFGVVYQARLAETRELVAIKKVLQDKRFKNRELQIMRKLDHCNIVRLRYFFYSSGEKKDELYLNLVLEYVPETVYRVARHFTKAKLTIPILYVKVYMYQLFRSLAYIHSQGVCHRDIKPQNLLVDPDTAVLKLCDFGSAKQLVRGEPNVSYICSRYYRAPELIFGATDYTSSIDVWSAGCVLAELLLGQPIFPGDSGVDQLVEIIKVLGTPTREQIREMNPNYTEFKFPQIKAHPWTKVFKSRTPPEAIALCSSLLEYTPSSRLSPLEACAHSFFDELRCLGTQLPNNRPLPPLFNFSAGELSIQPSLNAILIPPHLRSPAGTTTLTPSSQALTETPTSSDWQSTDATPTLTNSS

SMILES	AC50
O=C(Nc1ccccc1)c1ccc(CSc2ncccn2)cc1	> 30 µM (inactive)
COc1ccc(CC(=O)Oc2ccc(C)cc2C)cc1	> 30 µM (inactive)
CS(=O)(=O)N1CCN(c2ccccc2NC(=O)c2ccc(Br)o2)CC1	1.94 µM
CCOC(=O)CSc1nc(C)[nH]c1[N+](=O)[O-]	> 30 µM (inactive)
COc1ccc(-c2cn3cccnc3n2)cc1NC(=O)C1CC1	> 30 µM (inactive)
Cc1ccc(/C=N/NC(=O)c2nnn(-c3nonc3N)c2CN(C)C)s1	> 30 µM (inactive)
CC(=O)Oc1ccc(C(=O)c2ccccc2)c(OC(C)=O)c1	> 30 µM (inactive)
Cc1c2c(n3c(nc4ccccc43)c1C#N)N(CCN(C)C)CC2	21.7 µM
CS(=O)(=O)N1CCN(c2ccccc2NC(=O)c2cccs2)CC1	> 30 µM (inactive)
CC1(C)Oc2ccc3ccc(=O)oc3c2-c2cn[nH]c21	7.97 µM
Cc1nc(SCC(=O)Nc2ccccc2C(F)(F)F)c(C#N)c(C)c1CC(=O)c1ccc(Br)cc1	> 30 µM (inactive)
Cc1c(C)n(CCCN(C)C)c2ncnc(NC3CCCCC3)c12	> 30 µM (inactive)
COc1ccc(COC(=O)C2=C(C)NC(=O)NC2c2ccc(F)cc2)cc1 (stereo not given)	> 30 µM (inactive)
O=C(O)c1cccc2c1C(=O)c1ccc(Cl)cc1S2(=O)=O	> 30 µM (inactive)
O=C(COc1ccccc1Cl)Nc1ccc(Cl)cn1	> 30 µM (inactive)
CCCc1nnc(NC(=O)CCN2C(=O)c3ccccc3C2=O)s1	> 30 µM (inactive)
COC(=O)c1c(NC(=O)CN2C(=O)NC3(CCC(C)CC3)C2=O)sc2c1CCC2 (stereo not given)	> 30 µM (inactive)
CC(OC(=O)Cc1c[nH]c2ccccc12)C(=O)c1ccccc1 (stereo not given)	> 30 µM (inactive)
Fc1cccc(/C=N/Nc2nccnc2Cl)c1	> 30 µM (inactive)
O=C1/C(=C/c2ccc(Br)cc2)Oc2cc(O)ccc21	> 30 µM (inactive)
Cc1nnc(NC(=O)c2cccc(S(=O)(=O)N3CC(c4ccccc4)CC3=O)c2)s1 (stereo not given)	> 30 µM (inactive)
C=CCNC(=S)N1CCN(c2cccc(C(F)(F)F)c2)CC1	> 30 µM (inactive)
Cc1sc2ncnc(SCC(=O)NCC3CCCO3)c2c1C (stereo not given)	> 30 µM (inactive)
O=c1[nH]nc(SCCS(=O)(=O)c2ccc(F)cc2)n1-c1ccccc1C(F)(F)F	17.5 µM
CC(C)(C)C(=O)/C=c1\[nH]c(=O)/c(=C\c2ccc(F)cc2)s1	11.9 µM

SMILES	AC50
CCCCNc1nc(N)nc(-c2cc(Cl)ccc2O)n1	3.04 µM
N#CC(C#N)=Cc1c[nH]c(=O)c(C#N)c1Nc1ccccc1	9.4 µM
CN(C)/C=C/c1c([N+](=O)[O-])c2ccc(O)cc2n1-c1ccccc1	2.08 µM
COC1(OC)N=C(N)C2(C#N)C(c3ccc(C)cc3)C12C#N (stereo not given)	> 30 µM (inactive)
Cc1ccc2nc(-c3ccccn3)[nH]c2c1	> 30 µM (inactive)
Cc1nc(S/C(=C/c2ccc(-c3ccc(C(=O)O)cc3)o2)C(=O)O)n[nH]1	21.4 µM
N#Cc1cnn2c3c(cnc12)C(=O)N1CCc2ccccc2C1C3 (stereo not given)	> 30 µM (inactive)
CC1(C)Cc2c(sc3nn[nH]c(=O)c23)CO1	> 30 µM (inactive)
COc1ccccc1/C=N/NC(=O)c1nnn(-c2nonc2N)c1-c1cccs1	0.779 µM
N#CC1=C2SCN(Cc3ccco3)CN2C(=O)CC1c1cccc2ccccc12 (stereo not given)	> 30 µM (inactive)
CCSc1nc(N)c(C#N)c(-c2ccco2)c1C#N	> 30 µM (inactive)
COc1ccc(NC(=O)CN(C)S(=O)(=O)c2cnc[nH]2)cc1	> 30 µM (inactive)
Cc1cc(C)nc(NC(=O)c2ccc(Br)s2)n1	> 30 µM (inactive)
Cc1ccc(Cc2c(C)nc3nc(SCC(=O)NCCCN4CCCCCC4)nn3c2C)cc1	> 30 µM (inactive)
C/C(=N\O)C(=O)NCCCn1ccnc1	> 30 µM (inactive)
CC(=O)c1sc(NC(=O)CN2C(=O)C3CCCCC3C2=O)nc1-c1ccccc1 (stereo not given)	8.54 µM
COc1ccccc1NC(=O)c1cc2ccc(O)cc2o/c1=N\O	> 30 µM (inactive)
CCOc1ccc(Nc2nc(N(C)c3ccccc3)nc(N)c2[N+](=O)[O-])cc1	> 30 µM (inactive)
CCOC(=O)C1=C(c2ccccc2)Nc2ncnn2C1c1cccc(OC)c1OC (stereo not given)	9 µM
CC1CCN(Cc2c(C(=O)N/N=C/c3ccc(C(C)(C)C)cc3)nnn2-c2nonc2N)CC1	> 30 µM (inactive)
Cc1ccnc(NC(=O)CCC(=O)N(CC(=O)NCc2ccccc2)Cc2ccccc2)c1	15.1 µM
CCN1CCN(CC(=O)Nc2nc3ccc(OC)cc3s2)CC1	> 30 µM (inactive)
CCN1CCN(c2nc(N)c([N+](=O)[O-])c(Nc3ccc(C)c(C)c3)n2)CC1	> 30 µM (inactive)
Cc1cnn(-c2cc(N/N=C/c3ccc(F)cc3)ncn2)c1	> 30 µM (inactive)
CCN1/C(=C/C=C/c2sc3ccccc3[n+]2CC)Sc2ccccc21	24.6 µM

SMILES	AC50
COCCOC(=O)c1[nH]c2c(c1C)C(=O)CC(c1cc(OC)c(OC)c(OC)c1)C2 (stereo not given)	> 30 µM (inactive)
Clc1ccc(-c2noc(COc3ccccc3)n2)cc1	> 30 µM (inactive)
CN(Cc1c(C(=O)N/N=C/c2ccc(F)cc2)nnn1-c1nonc1N)C1CCCCC1	> 30 µM (inactive)
Oc1ccc(/C=N/NC(=S)N/N=C/c2ccc(O)cc2)cc1	23.5 µM
COc1ccc(C(=O)NCC(=O)N/N=C/C=C/c2ccccc2)cc1OC	> 30 µM (inactive)
Cn1c(=O)c2c(-c3ccccc3)n(Cc3ccccn3)cc2n(C)c1=O	> 30 µM (inactive)
NC(=O)c1cn(-c2ccccc2)nc1-c1cccnc1	> 30 µM (inactive)
Cn1ccnc1SCC(=O)Nc1ccc(Cl)cn1	23.1 µM
CN(c1ccccc1)c1nc(-n2ccnc2)nc(-n2ccnc2)n1	29.3 µM
CCN(C(=O)CN1CCCC(C)C1)c1c(N)n(Cc2ccccc2)c(=O)[nH]c1=O (stereo not given)	> 30 µM (inactive)
Nc1nc(N)nc(-c2cc(O)ccc2O)n1	11.8 µM
CC(C)(C)NC(=O)CSc1ncccc1-c1nc2ccccc2[nH]1	> 30 µM (inactive)
CCOC(=O)c1c(NC(=S)N2CCOCC2)sc2c1CCN(C(=O)OCC)C2	> 30 µM (inactive)
CC(Oc1ccccc1)C(=O)Nc1nnc(C2CCCCC2)s1 (stereo not given)	> 30 µM (inactive)
O=C(O)c1ccc(N=c2oc3cc(O)ccc3cc2C(=O)NCc2ccccc2)cc1	5.83 µM
CC(/C=N/NC(=O)c1nnn(-c2nonc2N)c1C(C)C)=C\c1ccccc1	> 30 µM (inactive)
COc1ccc(CCNc2cc(C)nc(N)n2)cc1OC	> 30 µM (inactive)
CC1(C)CC(=O)C=C(c2cccc(O)c2)C1	> 30 µM (inactive)
Cc1ccsc1C(=O)OCC(=O)N1C(C)CCCC1C (stereo not given)	> 30 µM (inactive)
C=CCn1cnc2c(c1=O)c1nc3ccccc3nc1n2/N=C/c1cc(OC)c(OC)c(OC)c1	> 30 µM (inactive)
O=[N+]([O-])c1ccc(NCCCN2CCOCC2)c2ncccc12	> 30 µM (inactive)
O=C(CCSc1nc(-c2ccco2)cc(C(F)(F)F)n1)NCc1cccs1	> 30 µM (inactive)
Cc1ccc(C(=O)Nc2cccc(-c3cnc4ccccc4n3)c2)cc1	> 30 µM (inactive)
CCc1c(C)c(C#N)c2nc3ccccc3n2c1NC	> 30 µM (inactive)
CCOC(=O)c1cccc(NC(=O)C2CCCN2S(=O)(=O)c2cccc3cccnc23)c1 (stereo not given)	29.5 µM
